Assay results reported in US20030176475A1, “Therapeutically useful new salts of cck inhibitors, process for the preparation thereof and pharmaceutical preparations containing them” (priority 2000, published 2003).

Columns and labels:
[1] = biological target: T1, cholecystokinin A (CCK-A) (Rattus norvegicus, UniProt P30551); conditions: comparison in words; cited from earlier work
T1 construct: from tissue; host or cells: living rat (in vivo, oral dosing; gastric emptying)
T1 sequence (P30551 1-444): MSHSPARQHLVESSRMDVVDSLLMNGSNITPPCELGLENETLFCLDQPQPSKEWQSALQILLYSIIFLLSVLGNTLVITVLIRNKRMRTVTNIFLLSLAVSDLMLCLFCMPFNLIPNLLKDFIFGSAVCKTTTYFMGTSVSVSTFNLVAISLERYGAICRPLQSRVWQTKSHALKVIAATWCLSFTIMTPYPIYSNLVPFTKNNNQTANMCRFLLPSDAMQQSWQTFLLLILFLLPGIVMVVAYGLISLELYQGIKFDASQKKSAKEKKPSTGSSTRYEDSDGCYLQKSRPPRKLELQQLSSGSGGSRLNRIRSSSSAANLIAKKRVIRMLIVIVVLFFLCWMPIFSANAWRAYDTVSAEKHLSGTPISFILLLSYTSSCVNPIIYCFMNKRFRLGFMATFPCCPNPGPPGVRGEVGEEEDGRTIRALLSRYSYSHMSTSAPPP

[2] = Hygroscopicity and chemical stability of the salts; type: physicochemical
Description: The mono- and di-sodium salts, as well as the mono- and di-potassium salts and their hydrates are highly hygroscopic and chemically not stable compounds namely the compound of the formula (II) decomposes at the amide bond giving rise to decomposition products of formulae (IV) (FIG. 6) and (V) (FIG. 7).

Row | SMILES | ED50 of prior salts compared with the 34 μg/kg p.o. of the compound of the invention [1] | melting point | hygroscopicity [2] | chemical stability ([2]; decomposition at the amide bond to products of formulae (IV) and (V))
1 | Nc1cc(Cl)nc(C(=O)[O-])c1Cl.[K+] [potassium salt] | in the same order |  |  | 
2 | COc1cc(-c2nc(NC(=O)c3cc4cc(C)cc(C)c4n3CC(=O)O)sc2CCC2CCCCC2)c(OC)cc1Cl.NCCO.O (hydrate or solvate) |  | 166 to 167 °C |  | 
3 | CCNCC.COc1cc(-c2nc(NC(=O)c3cc4cc(C)cc(C)c4n3CC(=O)O)sc2CCC2CCCCC2)c(OC)cc1Cl |  | 209.4 to 210.7 °C |  | 
4 | COc1cc(-c2nc(NC(=O)c3cc4cc(C)cc(C)c4n3CC(=O)O)sc2CCC2CCCCC2)c(OC)cc1Cl.NCCO [ethanolamine salt, 2-[[[4-(4-chloro-2,5-dimethoxyphenyl)-5-(2-cyclohexylethyl)-2-thiazolyl]amino]carbonyl]-5,7-dimethyl-1H-indol-1-acetic Acid Ethanolamine Salt] |  | 208 to 210 °C | non-hygroscopic | chemically stable
